Experimental findings from patent publication US12281079B2, “Quinoline derivatives, processes for their preparation and uses thereof for the treatment of cancer” (Lead Discovery Center GmbH, priority 2019, dated 2025) are described below.

Assay [1] concerns mitochondrial transcription (7S RNA) in HeLa cells. The experiment in a line: Quantitative real time-PCR assay of inhibition of mitochondrial transcription (7S RNA) in HeLa cells. Type of assay: cell-based. As to conditions: Homo sapiens, 4 h compound incubation, according to Example 5, read-out: cellular qPCR assay. On the procedure:
Quantitative real-time PCR (qRT-PCR), based on the TaqMan™ (Thermo Fisher Scientific, Waltham Mass.) technology, was carried out essentially as described in Held et al. (1996). HeLa cells were plated one day before compound treatment in RPMI medium supplemented with 10% Fetal Calf Serum and 2 mM L-glutamine. Cells were incubated with dilution series of compounds or vehicle (DMSO) for 4 h, prior to harvest and extraction of the RNA using the RNeasy Mini Kit (Qiagen, Hilden D), according to the manufacturer's instructions. RNA concentrations were measured spectroscopically, using a NanoDrop-2000 (Thermo Fisher Scientific, Waltham Mass.) and normalized prior to cDNA synthesis, using a ‘High-Capacity cDNA Reverse Transcription Kit’ (Thermo Fisher Scientific, Waltham Mass.). qRT-PCR was carried out using the ‘TaqMan Fast Advance Master Mix’ (Thermo Fisher Scientific, Waltham Mass.) on a 7500 Fast Real-Time PCR machine (Applied Biosystems, Foster City Calif.)
For these measurements, three genes were used to compare the effect of the scrutinized compounds in relation to their concentration. The POLRMT-gene was used to detect potential influences on nuclear transcription. Mitochondrial transcription in vivo was monitored by measurements 7S RNA. The TBP (TATA-box binding protein) gene was employed as the control (housekeeping gene) during qRT-PCR. The short-lived mitochondrial 7S RNA, which is not post-transcriptionally stabilized, allowed us to monitor rapid changes in mitochondrial transcription activity following compound addition. Biological triplicates were analyzed using the comparative CT Method (ΔΔCt) method (Bubner and Baldwin, 2004) and reported as Rq % values (Rq=Relative quantification=2−ΔΔCt).
Background: Real-time PCR tracks product formation cycle by cycle.

The target in assay [2] is mitochondrial RNA polymerase (POLRMT) (Mus musculus, UniProt Q8BKF1). Briefly: Homogeneous TR-FRET assay for mitochondrial transcription activity. Format: biochemical. Conditions: homogeneous TR-FRET assay according to Example 4. An outline of the steps:
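Read-out is TR-FRET (ex 340, em 665 nm) from two adjacent labelled DNA probes annealing to the 407 bp transcript after EDTA/700 mM NaCl stop. Reaction: murine POLRMT, TFAM, TFB2M and LSP plasmid template, compound 10 μM or serial dilution, 10 min rt preincubation, 500 μM each nucleotide, 2 h rt.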
(In general: TR-FRET usually uses a lanthanide donor and a delayed reading to cut background.)

Chain of mitochondrial RNA polymerase (POLRMT) (Q8BKF1 42-1207): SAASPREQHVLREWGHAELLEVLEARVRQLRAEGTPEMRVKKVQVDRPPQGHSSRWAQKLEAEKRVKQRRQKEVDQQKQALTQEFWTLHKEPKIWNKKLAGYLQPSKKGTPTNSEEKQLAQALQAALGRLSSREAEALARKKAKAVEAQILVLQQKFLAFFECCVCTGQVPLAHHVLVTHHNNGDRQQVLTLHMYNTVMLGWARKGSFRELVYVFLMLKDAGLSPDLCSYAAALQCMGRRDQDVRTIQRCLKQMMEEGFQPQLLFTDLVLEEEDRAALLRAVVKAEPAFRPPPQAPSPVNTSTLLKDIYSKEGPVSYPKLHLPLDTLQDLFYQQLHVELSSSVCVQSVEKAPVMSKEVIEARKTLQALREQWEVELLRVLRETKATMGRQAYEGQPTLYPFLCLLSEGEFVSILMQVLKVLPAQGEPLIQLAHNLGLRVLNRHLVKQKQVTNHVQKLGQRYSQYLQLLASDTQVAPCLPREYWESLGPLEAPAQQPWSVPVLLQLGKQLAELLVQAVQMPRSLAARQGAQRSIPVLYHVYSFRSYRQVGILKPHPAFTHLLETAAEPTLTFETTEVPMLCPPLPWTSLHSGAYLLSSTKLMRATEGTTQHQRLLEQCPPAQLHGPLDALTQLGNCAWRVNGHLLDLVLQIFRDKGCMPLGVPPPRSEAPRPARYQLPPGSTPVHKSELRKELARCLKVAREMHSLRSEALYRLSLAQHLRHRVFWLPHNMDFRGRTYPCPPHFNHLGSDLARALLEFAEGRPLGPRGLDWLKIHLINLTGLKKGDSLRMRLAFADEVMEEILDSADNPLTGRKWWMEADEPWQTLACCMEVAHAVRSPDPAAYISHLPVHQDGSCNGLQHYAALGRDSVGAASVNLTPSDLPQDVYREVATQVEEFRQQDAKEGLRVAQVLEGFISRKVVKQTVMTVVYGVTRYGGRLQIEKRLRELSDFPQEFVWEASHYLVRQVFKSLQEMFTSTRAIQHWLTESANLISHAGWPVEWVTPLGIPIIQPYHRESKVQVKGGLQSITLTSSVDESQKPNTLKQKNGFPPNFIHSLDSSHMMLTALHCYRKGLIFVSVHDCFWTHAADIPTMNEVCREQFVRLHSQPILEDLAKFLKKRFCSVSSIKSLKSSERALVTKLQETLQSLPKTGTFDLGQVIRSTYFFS

Regarding `C[C@@H](Oc1ccc2c(-c3ccc(F)cc3Cl)ccnc2c1)C(=O)N1CCCC1` [Compound 42, (2R)-2-[[4-(2-chloro-4-fluoro-phenyl)-7-quinolyl]oxy]-1-pyrrolidin-1-yl-propan-1-one], the IC50 lay within 50 to 500 nM in assay [1] and 100 to 1000 nM in assay [2].

Take `C[C@@H](Oc1ccc2c(-c3ccc(F)cc3Cl)ccnc2c1)C(=O)N1CCCC2(CC2C(=O)O)C1` (stereo partly drawn) [Compound 193, 5-[rac-(2R)-2-[[4-(2-chloro-4-fluoro-phenyl)-7-quinolyl]oxy]propanoyl]-5-azaspiro[2.5]octane-2-carboxylic acid]: the values for the IC50 in assay [1] and in assay [2] were 10 to 50 nM and 20 to 100 nM, respectively.

Consider `Cc1cccc(C)c1-c1ccnc2cc(O[C@H](C)C(=O)N3CCC[C@H](CC(=O)O)C3)ccc12` [Compound 3, 2-[(3R)-1-[(2R)-2-[[4-(2,6-dimethylphenyl)-7-quinolyl]oxy]propanoyl]-3-piperidyl]acetic acid], for which the figures for the IC50 in assay [1] and in assay [2] were less than 10 nM and less than 20 nM, respectively.

For `CC(=O)N(O)[C@H]1CCCN(C(=O)[C@@H](C)Oc2ccc3c(-c4ccc(F)cc4Cl)ccnc3c2)C1` [Compound 209, N-hydroxy-N-[(3S)-1-[(2R)-2-[[4-(2-chloro-4-fluoro-phenyl)-7-quinolyl]oxy]propanoyl]-3-piperidyl]acetamide], the IC50 in assay [1] is 10 to 50 nM; in assay [2], 100 to 1000 nM.

Consider `C[C@@H](Oc1ccc2c(-c3ccc(F)cc3Cl)ccnc2c1)C(=O)N1CCC[C@H](C#N)C1` [Compound 30, (3S)-1-[(2R)-2-[[4-(2-chloro-4-fluoro-phenyl)-7-quinolyl]oxy]propanoyl]piperidine-3-carbonitrile], for which the IC50 was 10 to 50 nM in assay [1] and 100 to 1000 nM in assay [2].

In the case of `C[C@@H](Oc1ccc2c(-c3ccc(F)cc3Cl)ccnc2c1)C(=O)N1CCC(C(=O)O)CC1` [Compound 24, 1-[(2R)-2-[[4-(2-chloro-4-fluoro-phenyl)-7-quinolyl]oxy]propanoyl]piperidine-4-carboxylic acid], the IC50 fell in the range of 50 to 500 nM in assay [1] and 20 to 100 nM in assay [2].

Regarding `C[C@@H](Oc1ccc2c(-c3ccccc3Cl)cc(F)nc2c1)C(=O)N1CCC[C@H](C(=O)O)C1` [Compound 12, (3S)-1-[(2R)-2-[[4-(2-chlorophenyl)-2-fluoro-7-quinolyl]oxy]propanoyl]piperidine-3-carboxylic acid], the IC50 in assay [1] is less than 10 nM; in assay [2] it was less than 20 nM.

As for `C[C@@H](Oc1ccc2c(-c3ccc(F)cc3Cl)ccnc2c1)C(=O)N1CCC2(CCNC2=O)CC1` [Compound 205, 8-[(2R)-2-[[4-(2-chloro-4-fluoro-phenyl)-7-quinolyl]oxy]propanoyl]-2,8-diazaspiro[4.5]decan-1-one], the values for the IC50 in assay [1] and in assay [2] were 10 to 50 nM and 100 to 1000 nM, respectively.

Turning to `Cc1cc(F)cc(C)c1-c1ccnc2nc(O[C@H](C)C(=O)N3CCC[C@H](CC(=O)O)C3)ccc12` [Compound 221, 2-[(3R)-1-[(2R)-2-[[5-(4-fluoro-2,6-dimethyl-phenyl)-1,8-naphthyridin-2-yl]oxy]propanoyl]-3-piperidyl]acetic acid], the IC50 in assay [1] is less than 10 nM; in assay [2], less than 20 nM.

As to `C[C@@H](Oc1ccc2c(-c3ccc(F)cc3Cl)ccnc2c1)C(=O)N1CCCC(S(N)(=O)=O)C1` (mixture of isomers) [Compound 33, 1-[rac-(2R)-2-[[4-(2-chloro-4-fluoro-phenyl)-7-quinolyl]oxy]propanoyl]piperidine-3-sulfonamide], the values for the IC50 in assay [1] and in assay [2] were less than 10 nM and 100 to 1000 nM, respectively.

With `C[C@@H](Oc1ccc2c(-c3ccc(F)cc3Cl)ccnc2c1)C(=O)N1CCCC(C(C)(C)C(=O)O)C1` (stereo partly drawn) [Compound 197, 2-methyl-2-[1-[rac-(2R)-2-[[4-(2-chloro-4-fluoro-phenyl)-7-quinolyl]oxy]propanoyl]-3-piperidyl]propanoic acid], the IC50 in assay [1] was in the range of 10 to 50 nM; in assay [2], 20 to 100 nM.

On to `Cc1cc(F)cc(C)c1-c1ccnc2cc(O[C@H](C)C(=O)N3CCC[C@H](CC(=O)O)C3)ccc12` [Compound 183, 2-[(3R)-1-[(2R)-2-[[4-(4-fluoro-2,6-dimethyl-phenyl)-7-quinolyl]oxy]propanoyl]-3-piperidyl]acetic acid], for which the IC50 is less than 10 nM in assay [1] and less than 20 nM in assay [2].

`C[C@@H](Oc1ccc2c(-c3ccc(F)cc3Cl)ccnc2c1)C(=O)Nc1ccncc1` [Compound 95, (2R)-2-[[4-(2-chloro-4-fluoro-phenyl)-7-quinolyl]oxy]-N-(4-pyridyl)propanamide]: the results for the IC50 in assay [1] and in assay [2] were 50 to 500 nM and 100 to 1000 nM, respectively.

Turning to `Cc1ccccc1-c1cc(Cl)nc2cc(O[C@H](C)C(=O)N3CCC[C@H](C(N)=O)C3)ccc12` [Compound 52, (3S)-1-[(2R)-2-[[2-chloro-4-(o-tolyl)-7-quinolyl]oxy]propanoyl]piperidine-3-carboxamide], the IC50 in assay [1] was in the range of 10 to 50 nM; in assay [2] it was 100 to 1000 nM.

On to `C[C@@H](Oc1ccc2c(-c3ccc(F)cc3Cl)ccnc2c1)C(=O)NC(C)(C)C` [Compound 47, (2R)-N-tert-butyl-2-[[4-(2-chloro-4-fluoro-phenyl)-7-quinolyl]oxy]propanamide], for which the IC50 was 10 to 50 nM in assay [1] and 100 to 1000 nM in assay [2].

As for `CC1CN(C(=O)[C@@H](C)Oc2ccc3c(-c4ccc(F)cc4Cl)ccnc3c2)CC(C)N1` (stereo partly drawn) [Compound 216, (2R)-2-[[4-(2-chloro-4-fluoro-phenyl)-7-quinolyl]oxy]-1-(3,5-dimethylpiperazin-1-yl)propan-1-one], the results for the IC50 in assay [1] and in assay [2] were 50 to 500 nM and 100 to 1000 nM, respectively.

As to `C[C@@H](Oc1ccc2c(-c3ccccc3Cl)cc(Cl)nc2c1)C(=O)N1CCCCC1` [Compound 99, (2R)-2-[[2-chloro-4-(2-chlorophenyl)-7-quinolyl]oxy]-1-(1-piperidyl)propan-1-one], the IC50 lay in the range of 500 to 5000 nM in assay [1] and 1000 to 10000 nM in assay [2].

Regarding `CCOC(=O)C[C@H]1CCCN(C(=O)[C@@H](C)Oc2ccc3c(-c4ccccc4C)ccnc3c2)C1` [Compound 8, ethyl 2-[(3R)-1-[(2R)-2-[[4-(o-tolyl)-7-quinolyl]oxy]propanoyl]-3-piperidyl]acetate], the IC50 in assay [1] is 50 to 500 nM; in assay [2], less than 20 nM.

Consider `C[C@@H](Oc1ccc2c(-c3ccc(F)cc3Cl)ccnc2c1)C(=O)N1CCCC(C2(O)CC2)C1` (stereo partly drawn) [Compound 207, (2R)-2-[[4-(2-chloro-4-fluoro-phenyl)-7-quinolyl]oxy]-1-[3-(1-hydroxycyclopropyl)-1-piperidyl]propan-1-one], for which the values for the IC50 in assay [1] and in assay [2] were less than 10 nM and 100 to 1000 nM, respectively.

Take `CCNC(=O)[C@@H](C)Oc1ccc2c(-c3ccc(F)cc3Cl)ccnc2c1` [Compound 131]: the IC50 in assay [1] was in the range of 50 to 500 nM; in assay [2], 1000 to 10000 nM.

For the compound `C[C@@H](Oc1ccc2c(-c3ccc(F)cc3Cl)ccnc2c1)C(=O)N1CCC[C@H](C(=O)O)C1` [Compound 10, (3S)-1-[(2R)-2-[[4-(2-chloro-4-fluoro-phenyl)-7-quinolyl]oxy]propanoyl]piperidine-3-carboxylic acid], the IC50 in assay [1] is 10 to 50 nM; in assay [2], less than 20 nM.

For `C[C@@H](Oc1ccc2c(-c3ccc(F)cc3Cl)ccnc2c1)C(=O)N(C)C` [Compound 45, (2R)-2-[[4-(2-chloro-4-fluoro-phenyl)-7-quinolyl]oxy]-N,N-dimethyl-propanamide], the IC50 was in the range of 50 to 500 nM in assay [1] and 100 to 1000 nM in assay [2].

For `CC(Oc1ccc2c(-c3ccccc3Cl)ccnc2c1)C(=O)N(C)C` (stereo not shown) [Compound 86, 2-[[4-(2-chlorophenyl)-7-quinolyl]oxy]-N,N-dimethyl-propanamide], the figures for the IC50 in assay [1] and in assay [2] were 50 to 500 nM and 1000 to 10000 nM, respectively.

For the compound `C[C@@H](Oc1ccc2c(-c3ccccc3Cl)cc(Cl)nc2c1)C(=O)N1CCN(C(=O)C2CC2)CC1` [Compound 70, (2R)-2-[[2-chloro-4-(2-chlorophenyl)-7-quinolyl]oxy]-1-[4-(cyclopropanecarbonyl)piperazin-1-yl]propan-1-one], the results for the IC50 in assay [1] and in assay [2] were 500 to 5000 nM and 100 to 1000 nM, respectively.

Turning to `C[C@@H](Oc1ccc2c(-c3c(Cl)cc(F)cc3Cl)ccnc2c1)C(=O)N1CCC[C@H](CC(=O)O)C1` [Compound 192, 2-[(3R)-1-[(2R)-2-[[4-(2,6-dichloro-4-fluoro-phenyl)-7-quinolyl]oxy]propanoyl]-3-piperidyl]acetic acid], the IC50 is less than 10 nM in assay [1] and 20 to 100 nM in assay [2].

For the compound `CCOC(=O)[C@H]1CCCN(C(=O)[C@@H](C)Oc2ccc3c(-c4ccccc4Cl)cc(F)nc3c2)C1` [Compound 41, ethyl (3S)-1-[(2R)-2-[[4-(2-chlorophenyl)-2-fluoro-7-quinolyl]oxy]propanoyl]piperidine-3-carboxylate], the values for the IC50 in assay [1] and in assay [2] were 500 to 5000 nM and 100 to 1000 nM, respectively.
